{"source": "patent US20080119567A1", "about": "“Methods of use of herbal compositions” (priority 2003, published 2008)", "key": {"[1]": {"assay": "Pharmacokinetics study of intravenous injection with and without geranium oil", "type": "in vivo, mice"}, "[2]": {"test_system": "H. pylori (ATCC 43504)", "assay": "Minimum inhibitory concentration by agar dilution method", "type": "cell-based, Helicobacter pylori", "parameters": "key: scored positive (+) for inhibition/eradication of colonies growth; negative (−) for no effect upon growth colonies", "details": "0.3 μg/ml; 37° C., 72 hours, n=2", "procedure": "Minimum inhibitory concentration is determined by the agar dilution method. 2 mg of test substance, composition of geranium oil and extracts from S. flavescenes prepared for injections (MIC-1), is dissolved and serially diluted in solvent (distilled water) to desired stock concentrations. For each concentration tested, a 10 μl aliquot is added to a 48-well plate containing 0.99 ml of Columbia agar base supplemented with 7% defibrinated rabbit blood. The inoculum of H. pylori (ATCC 43504) is prepared by suspending in brain heart infustion broth to a density of 5×10^8 CFU/ml. A multiprong-incubating device is used to place approximately 5×10^5 CFU/ml per spot onto the containing agent media. […] The plates are incubated at 37° C. for 72 hours in the microaerophilic condition (mixed gas N2 85%, CO2 10%, and O2 5%) and then visually examined and scored positive (+) for inhibition/eradication of colonies growth or negative (−) for no effect upon growth colonies. […] Each concentration is evaluated in duplicate.\nMinimum inhibitory concentration is determined by the agar dilution method. […] The plates are incubated at 37° C. for 72 hours in the microaerophilic condition (mixed gas N2 85%, CO2 10%, and O2 5%) and then visually examined and scored positive (+) for inhibition/eradication of colonies growth or negative (−) for no effect upon growth colonies. […] Each concentration is evaluated in duplicate. […]"}, "[3]": {"test_system": "Helicobacter pylori (clinical isolate strain)", "assay": "Gastric ulceration after Helicobacter pylori inoculation in mice (Example 11)", "type": "in vivo, ICR derived mice", "details": "24.5 ml/kg × 2 × 7 PO (text: 24.5 mg/kg)", "procedure": "Seven groups of 5 male ICR derived mice weighing 24±2 grams were fasted for 18 hours before the intragastric inoculation of Helicobacter pylori (clinical isolate strain) in suspension at 1.5×10^9 CFU/0.4 ml/mouse. […] Subsequently, test substances and vehicle were each administered orally twice daily (9:00 A.M. and 16:00 P.M.) for […]. omeprazole 1 mg/kg and clarithromycin 10 mg/kg in combination was used as a positive control agent and was administered orally to test animals once daily (9:00 A.M.) for 7 consecutive days. Seven days after infection, on day eight, all animals with overnight fasting were sacrificed and the stomachs were dissected along the greater curvature. Gastric ulceration was scored at four levels according to the degree of hemorrhage and the severity of ulcerative lesions: 0=normal appearance, 1=mild red spots, 2=moderate red spots and/or hemorrhage spots, 3=marked hemorrhage spots. Reduction of concurrent vehicle control score values by 50 percent or more (≧50%) is considered significant. Test substances and vehicle control (2% TWEEN 80® in 0.9% NaCl solution) were each administered orally to test animals twice daily for 7 consecutive days. The Helicobacter pylori (1.5×10^9 CFU/0.4 ml/mouse) inoculation was applied one hour before the first dosing on day 1. […]"}}, "note": "Where “and” joins values, the source holds several entries; their conditions need not be identical. Identical values can stand only once.", "data": [{"compound": "O=C1CCC[C@@H]2[C@H]3CCC[N+]4([O-])CCC[C@@H](CN12)[C@@H]34", "note": "(some centres unmarked) [oxymatrine]", "values": [{"measurement": "effect of addition of geranium oil on absorption and metabolism (HPLC peak areas over time)", "setting": "[1]; mouse, in vivo, iv", "result": "increase the absorption and metabolism"}]}, {"compound": "gentamicin", "values": [{"measurement": "Result (inhibition/eradication of colonies growth)", "setting": "[2]", "result": "+"}]}, {"compound": "O=C1CCC[C@@H]2[C@H]3CCCN4CCC[C@@H](CN12)[C@@H]34", "note": "[matrine]", "values": [{"measurement": "effect of addition of geranium oil on absorption and metabolism (HPLC peak areas over time)", "setting": "[1]; intravenous injection, mice, with geranium oil vs alone", "result": "increase the absorption and metabolism"}]}, {"compound": "CC(C)=CCCC(C)CCO", "note": "(centres unmarked) [MIC-20, citronellol]", "values": [{"measurement": "Ulceration Score Total", "setting": "[3]; N=5", "result": 3}, {"measurement": "Ulceration Score Individual", "setting": "[3]; mice 1-5, score 0-3", "result": "0 (3×) and 2 and 1"}]}]}
